Patent publication US20260248833A1, “PYRIMIDINE NUCLEOSIDE TREATMENTS” (The Children`s Medical Center Corporation, priority 2022, published 2026)

Assays:
Assay type in all cases: biochemical
telomerase = molecular target: T1, telomerase (Homo sapiens, UniProt O14746); test: Modified TRAP assay with exogenous dTTP on super-telomerase extracts; conditions: increasing levels of exogenous dTTP
T1 construct: expressed in transfected cells; host or cells: TERC-null 293T cells transfected with TERT and TERC expression vectors
T1 sequence (O14746 whole entry): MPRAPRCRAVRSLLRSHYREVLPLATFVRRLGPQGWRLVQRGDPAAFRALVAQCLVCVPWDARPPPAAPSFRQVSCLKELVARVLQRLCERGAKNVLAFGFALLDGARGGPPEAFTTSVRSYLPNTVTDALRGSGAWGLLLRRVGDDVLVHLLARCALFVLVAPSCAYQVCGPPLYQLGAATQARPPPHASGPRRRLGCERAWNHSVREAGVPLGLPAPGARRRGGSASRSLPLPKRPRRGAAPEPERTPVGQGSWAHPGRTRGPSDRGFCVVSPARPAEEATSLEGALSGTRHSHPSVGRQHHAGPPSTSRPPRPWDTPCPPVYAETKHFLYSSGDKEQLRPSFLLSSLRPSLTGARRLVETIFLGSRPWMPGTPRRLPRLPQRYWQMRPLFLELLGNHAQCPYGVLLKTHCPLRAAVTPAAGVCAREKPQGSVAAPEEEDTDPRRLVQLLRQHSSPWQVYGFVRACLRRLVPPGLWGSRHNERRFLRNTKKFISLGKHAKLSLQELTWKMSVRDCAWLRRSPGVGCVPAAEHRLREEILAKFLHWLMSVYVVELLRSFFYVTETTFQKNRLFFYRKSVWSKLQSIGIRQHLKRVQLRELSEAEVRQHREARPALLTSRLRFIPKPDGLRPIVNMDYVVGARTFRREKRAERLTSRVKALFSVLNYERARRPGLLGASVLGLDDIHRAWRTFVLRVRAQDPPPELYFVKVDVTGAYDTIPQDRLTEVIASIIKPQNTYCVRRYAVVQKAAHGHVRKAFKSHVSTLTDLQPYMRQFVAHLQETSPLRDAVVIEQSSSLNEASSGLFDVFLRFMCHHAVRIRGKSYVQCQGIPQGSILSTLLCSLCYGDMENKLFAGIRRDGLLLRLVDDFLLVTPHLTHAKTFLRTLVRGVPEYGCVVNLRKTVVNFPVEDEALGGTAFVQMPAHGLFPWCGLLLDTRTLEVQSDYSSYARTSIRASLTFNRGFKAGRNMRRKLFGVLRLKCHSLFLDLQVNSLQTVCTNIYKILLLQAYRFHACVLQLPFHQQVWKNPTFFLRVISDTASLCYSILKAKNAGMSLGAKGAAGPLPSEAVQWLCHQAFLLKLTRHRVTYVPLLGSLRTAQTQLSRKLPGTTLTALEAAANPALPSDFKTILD
T1 sequence (O60832 whole entry partner): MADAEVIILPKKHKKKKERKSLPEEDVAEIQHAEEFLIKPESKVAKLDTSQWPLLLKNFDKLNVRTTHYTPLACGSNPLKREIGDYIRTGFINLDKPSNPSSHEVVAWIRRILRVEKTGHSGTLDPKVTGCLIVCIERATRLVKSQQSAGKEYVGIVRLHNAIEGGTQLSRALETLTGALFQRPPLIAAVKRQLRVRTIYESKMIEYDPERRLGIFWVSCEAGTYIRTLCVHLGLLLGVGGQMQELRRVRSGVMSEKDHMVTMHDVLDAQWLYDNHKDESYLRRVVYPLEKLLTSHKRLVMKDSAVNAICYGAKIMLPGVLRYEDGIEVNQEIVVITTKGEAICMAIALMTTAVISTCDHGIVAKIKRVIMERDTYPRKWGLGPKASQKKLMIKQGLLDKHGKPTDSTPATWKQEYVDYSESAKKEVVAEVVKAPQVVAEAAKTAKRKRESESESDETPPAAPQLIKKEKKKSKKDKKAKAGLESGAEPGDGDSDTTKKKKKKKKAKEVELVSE
T1 sequence (Q9NPE3 whole entry partner): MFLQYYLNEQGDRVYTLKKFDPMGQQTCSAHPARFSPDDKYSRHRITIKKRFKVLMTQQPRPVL
T1 sequence (Q9NX24 whole entry partner): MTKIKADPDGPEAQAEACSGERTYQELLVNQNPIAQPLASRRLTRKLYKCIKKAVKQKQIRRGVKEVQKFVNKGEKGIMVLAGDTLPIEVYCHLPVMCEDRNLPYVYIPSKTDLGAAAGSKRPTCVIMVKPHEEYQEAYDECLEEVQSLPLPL
T1 sequence (Q9NY12 whole entry partner): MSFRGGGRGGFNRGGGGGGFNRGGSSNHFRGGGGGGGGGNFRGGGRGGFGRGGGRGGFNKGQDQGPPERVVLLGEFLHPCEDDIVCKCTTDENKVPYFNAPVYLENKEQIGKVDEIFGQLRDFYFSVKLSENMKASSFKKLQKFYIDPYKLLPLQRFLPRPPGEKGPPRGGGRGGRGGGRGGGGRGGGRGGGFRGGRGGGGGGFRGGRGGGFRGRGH
Description: (§1) TRAP assay: cell extracts for TRAP assays were made using TRAPeze™1×CHAPS Lysis Buffer (Roche) supplemented with RNASEin (Promega). Standard TRAP reactions (in FIG. 25a) were performed as described, with cell input normalized across samples using the Bio-Rad DC assay. TRAP assays were modified to enable unique dNTP concentrations in telomerase reactions from PCR reactions (FIG. 25) as follows: reactions were assembled with 1×TRAP buffer (20 mM Tris-HCl, pH 8.3; 1.5 mM MgCl2; 63 mM KCl; 0.05% Tween 20; 1 mM EGTA), TS, ACX, TNST, and NT primers as described (see Primers/Oligos below), dNTPs were added at physiologic concentrations (dATP 24 μM, dGTP 5.2 μM, dCTP 29 μM, dTTP 37 μM) unless otherwise mentioned in the figure legend, followed by telomerase extracts. TRAP assays were modified to detect GGAAAG repeats using the following primers: TS GGAAAG, TNST GGAAAG, ACX GGAAAG, and NT (see Primers/Oligos below). After addition of telomerase extracts, reactions were incubated for 30 minutes at 30° C. followed by heat inactivation at 95° C. for 5 minutes. […] Images were quantified for a given lane using ImageJ by measuring the signal of the telomerase repeat sized products divided by the signal of the internal control band for the lane, normalized to the same ratio for the untreated sample(s) in a given experiment. […]

T-free telomerase = molecular target: T2, T-free telomerase (Homo sapiens, UniProt O14746); test: Modified GGAAAG TRAP assay on T-free super-telomerase extracts; conditions: increasing dTTP levels
T2 construct: expressed in transfected cells; host or cells: TERC-null 293T cells transfected with TERT and T-free TERC vectors
T2 sequence (O14746 whole entry): as the sequence (O14746 whole entry) above
T2 sequence (O60832 whole entry partner): as the sequence (O60832 whole entry partner) above
T2 sequence (Q9NPE3 whole entry partner): as the sequence (Q9NPE3 whole entry partner) above
T2 sequence (Q9NX24 whole entry partner): as the sequence (Q9NX24 whole entry partner) above
T2 sequence (Q9NY12 whole entry partner): as the sequence (Q9NY12 whole entry partner) above
Description: as §1

[1] = molecular target: T3, immunopurified T-free telomerase (Homo sapiens, UniProt O14746); test: Direct telomerase assay on immunopurified T-free telomerase
T3 construct: made in house; host or cells: TERC-null 293T cells, transient transfection; anti-HA magnetic bead immunopurification, enzyme used on beads
T3 sequence (O14746 whole entry): as the sequence (O14746 whole entry) above
T3 sequence (O60832 whole entry partner): as the sequence (O60832 whole entry partner) above
T3 sequence (Q9NPE3 whole entry partner): as the sequence (Q9NPE3 whole entry partner) above
T3 sequence (Q9NX24 whole entry partner): as the sequence (Q9NX24 whole entry partner) above
T3 sequence (Q9NY12 whole entry partner): as the sequence (Q9NY12 whole entry partner) above
Description: Telomerase immunopurification: 293T TERC-null cells were transfected as described above with 3×HA-TERT and TERC/EGFP in 10-cm diameter dishes with reagents scaled up proportional to cell growth area. Two days after transfection, cells were harvested, washed once in PBS, and lysed in TRAPezeTM1×CHAPS Lysis Buffer (Roche) supplemented with RNasin Plus (Promega) and HALT protease inhibitor cocktail (Thermo Fisher), followed by incubation on ice for 30 minutes and precipitation of insoluble material by centrifugation. Immunoprecipitation was performed as described previously with minor modifications. Briefly, 75 μl of anti-HA magnetic beads (Sigma-Aldrich, SAE0197, mouse IgG1 monoclonal antibody, Clone HA-7, 50% beads by volume) were added to clarified lysates followed by 2 hours incubation at 4° C. while rotating. […] Images were quantified using ImageJ as follows. For total telomerase activity measurement (FIG. 25f), telomerase product signal in a lane was quantified and normalized to the loading control band signal within the same lane. […] For the analysis of telomerase repeat intensity (FIG. 25x), the signal of each repeat (defined as the three consecutive intense bands in the laddering pattern, as indicated in FIG. 25d), was quantified and first normalized to the loading control band signal for that lane. […]

Cc1cn([C@H]2C[C@H](O)[C@@H](COP(=O)(O)OP(=O)(O)OP(=O)(O)O)O2)c(=O)[nH]c1=O [dTTP, dT triphosphate]
telomerase activity (telomerase): enhanced telomerase activity
T-free telomerase activity (T-free telomerase): increased T-free telomerase activity with increasing dTTP levels
T-free telomerase activity, levels higher than without dTTP ([1]; at a concentration of 25 μM dTTP): approximately 50%
T-free telomerase activity ([1]; incorporation of α-32P-dATP, dTTP added): enhanced T-free telomerase activity in a dose-dependent manner
